From US20250295661A1, “MENIN-MLL INHIBITORS FOR THE TREATMENT OF CANCER” (Syndax Pharmaceuticals, Inc., priority 2022, published 2025)

Columns and labels:
[1] = Population PK model simulation of Compound A dosing regimens (one-compartment, first-order absorption, lag time); set-up: species or system human
Procedure: The rationale for these doses is based on PK data from 53 patients treated in Arm A (no strong cytochrome P450 CYP3A4 inhibitor) and Arm B (with a strong CYP3A4 inhibitor) of Study Compound A which were analyzed with a preliminary population PK model. The model was a one-compartment PK model with first-order absorption (ka) and lag time (Tlag) that described the individual PK data. The data confirmed the expected effect of a strong CYP3A4 inhibitor comedication in Arm B on the drug elimination rate (k) and apparent volume of distribution (Vz/F).
The starting dose of 163 mg TID of Compound A alone was selected because it provides Cmax, Cmin, as shown in FIGS. 2A-B, and AUC0-24 approximately half that of 163 mg q12 h with a strong CYP3A4 inhibitor, as shown in FIG. 2C; the lower exposure provides a margin of safety in case CRC patients are more sensitive to the effects of Compound A than acute myeloid leukemia patients. The dose of 276 mg TID is expected to show exposure similar to that for 163 mg q12 h with a strong CYP3A inhibitor based on 3 key PK parameters (Cmax, Cmin, and AUC0-24), as shown in FIGS. 2A-C and Table 3A.

[2] = system: >125 molecular targets; test: Off-target screening assays
[3] = system: dogs; test: GLP 28-day dog toxicology study / QTc in dogs; format: in vivo
[4] = system: rats; test: GLP 28-day rat toxicology study; format: in vivo

CCN(C(=O)c1cc(F)ccc1Oc1cncnc1N1CC2(CCN(C[C@H]3CC[C@H](NS(=O)(=O)CC)CC3)CC2)C1)C(C)C [Compound A]
Cmax, Cmin and AUC0-24 relative to 163 mg q12 h with a strong CYP3A4 inhibitor ([1]; 163 mg TID of Compound A alone): approximately half | Exposure (Cmax, Cmin, AUC0-24) compared with 163 mg q12 h with a strong CYP3A inhibitor ([1]; 276 mg TID without CYP3A4 inhibitor): similar | Cross-reactivity in off-target screening [2]: no cross-reactivity | Potential main targeted organ of toxicity: heart ([3]; 28-day dog toxicology study): electrocardiogram [ECG] changes in dogs | Potential main targeted organs of toxicity (other) ([3]; 28-day rat and dog toxicology studies, dog): liver, bone marrow, lymphoid tissues, male reproductive system, and female reproductive system | QTc finding in dogs ([3]; dogs treated with Compound A): Prolonged QTc | Potential main targeted organs of toxicity (other) ([4]; 28-day rat and dog toxicology studies, rat): liver, bone marrow, lymphoid tissues, male reproductive system, and female reproductive system | Potential main targeted organ of toxicity: eyes ([4]; 28-day rat toxicology study): cataracts in rats only
